This is an account of results in patent publication US20230181535A1, “UBIQUITIN-LIGASE INHIBITORS FOR THE TREATMENT OF CANCER” (FUNDACIÓN PROFESOR NOVOA SANTOS, priority 2020, published 2023).

“Also recorded” adds a separate entry of the source.

Series [1] relates to Hakai-transformed MDCK cells. Briefly: Phase-contrast cell phenotype, Hakai-MDCK. The class given is cell-based. The settings on record: Hakai-transformed MDCK cells (mesenchymal phenotype). The method, then:
MDCK, HEK293T, HepG2, MCF7 and ACHN cells were cultured in Dulbecco's Modified Eagles Medium (DMEM). MDCK stably expressing Hakai cells (Hakai-MDCK) were previously reported and were growth in DMEM with G418 (800 μg/ml). […] LoVo and PC-3 cells were cultured in F-12K Medium (Kaighn's Modification of Ham's F-12 Medium) and HT-29 and HCT116 cells in McCoy's 5a Medium Modified. 5637 cells were cultured in RPMI medium. All culture media were supplemented with 1% penicillin/streptomycin and 10% of heat-inactivated fetal bovine serum (FBS) at 37° C. in a humidified incubator with 5% CO2. Cells were monthly tested for mycoplasma contamination and used only for 1-3 months after defrosted. LoVo and HT29 cells were authenticated with the StemElite ID system (Promega). For phase-contrast images, culture cells were photographed with a Nikon Eclipse-TI microscope.

Series [2] concerns non-transformed epithelial MDCK cells. The series is described as follows: BrdU proliferation assay, MDCK. The settings on record: 48 h. Format: cell-based. The method, then:
(§1) For BrdU assays, 1×10^4 of indicated cells were plated per well into a 96-well plate. After 24 h, cells were treated with the indicated inhibitors for 48 h. Three independent experiments were plated with six replicates per each condition. Cells were treated with […] BrdU for 2 h. BrdU incorporation into newly synthesized DNA was measured using a cell proliferation colorimetric immunoassay kit according to the manufacturer's instructions (Roche, Switzerland). Results are expressed as mean±S.D. Results are represented as percentage of positive cells (mean±S.D) of three independent experiments.

In series [3] the test system is bladder cancer 5637 cells. The series is described as follows: BrdU proliferation assay, 5637. Format: cell-based, human. The settings on record: 48 h. The method, then: as §1
Series [4] concerns renal cancer ACHN cells. The series is described as follows: BrdU proliferation assay, ACHN. Format: cell-based, human. As to conditions: 48 h. The protocol: as §1
Series [5] relates to HT-29 cells. The series is described as follows: Soft agar-colony formation assay, HT-29. Format: cell-based, human. As to conditions: 28 days. The protocol: Soft agar-colony formation assay was performed on 12-well plates in triplicates at a density of 5×10^3 MDCK and MDCK-Hakai cells/well, or 12×10^3 HT29 cells/well. Cells were seeded in medium with 0.5% low-melting agarose over a layer with 0.75% low-melting agarose (Lonza Rockland, Me., USA). Cells were treated with the indicated inhibitors and DMSO was used as vehicle. Treatment was refreshed every 3 days and, after 21 days for MDCK and MDCK-Hakai cells or 28 days for HT29 cells, number of colonies were quantified. Quantification of five randomly-selected fields of each condition was photographed with a Nikon Eclipse-TI microscope (objective 4×). Experiments were conducted with three triplicates and were repeated three times. Data are represented as mean±SD.

Series [6] has as its system Hakai-MDCK xenograft tumours. The series is described as follows: Tumour xenograft model (Hakai-MDCK cells in nude mice). Format: in vivo. The protocol: Xenografts experiments were performed in Experimental Surgery Unit—Technological Training Center from INIBIC in compliance with the European Community Law (86/609/EEC) and the Spanish law (R.D. 53/2013). The experiment was approved by the Ethics Committee for Animal Experimentation of Xerencia de Xestion Integrada da Coruna (XXIAC). Mice were in a 12/12 hours light/dark cycle with water and food available ad libitum. Six weeks old athymic nu/nu mice were randomly distributed in groups. One million of MDCK cells, resuspended in DMEM without serum and antibiotic, were subcutaneously inoculated in both flanks in two groups of 3 animals. The same number of Hakai-MDCK cells were injected in two groups of 4 animals. […] Then, half of the animals were treated with Hakin-1 (5 mg/kg) and the other half with the same concentration of DMSO every 3 days. Tumour outgrowth was monitored twice a week taking measurements of tumour length (L) and width (W) with an electronic calipter. Tumour volume was calculated as pLW2/6. Forty days after inoculation, animals were sacrificed. Tumours, lungs, kidneys and livers were collected and fixed in 4% PFA and embedded in paraffin blocks for histology and/or immunohistochemistry (IHC) analyses.
Tumours and tissues were deparaffinised, rehydrated and stained with haematoxylin and eosin (H&E) as previously described. Tumour sections (4 μm) were also deparaffinised and hydrated for immunohistochemistry. Antigen retrieval was carried by heating the samples (2100 Retriever; PickCell Laboratories) in citrate buffer (Dako REAL, Denmark) or in EDTA buffer. Then, endogenous peroxidase activity was blocked with peroxidase blocking (DakoCytomation, Denmark). Samples were blocked and permeabilized with 0.2% BSA and 0.1% Tx-100 for 1 hour and incubated with the indicated primary antibodies overnight at 4° C. in a wet chamber. Slides were incubated for 1 hour at room temperature with the secondary antibody and detection was carried our using DAB (DakoReal Envision kit) according to manufacturer instructions. Finally, nuclei were counterstained with Gill's Hematoxylin and mounted with DePeX. Pictures were taken with an Olympus microscope. Quantification of images was performed taken 5 photographs of each animal with Image J programme and the represented results are shown as mean±SEM. The number of mitosis was counted in sections stained with H&E. In this case, ten pictures of each tumour were taken with an Olympus BX50 microscope (objective 40×) and the number of mitosis was counted manually. Results are represented as mean±SEM and a representative photograph is shown for each condition.
Real-time PCR was used to study the presence of metastasis in the lung mice. Primers for HA epitope and Hakai present in ectopic HA-tagged Hakai expressed in MDCK-Hakai cells (5′-[…]-3′; 5″-[…]-3′) were used for the quantification. Primers for mouse apolipoprotein B (apob) (5′-[…]-3′; 5′-[…]-3′) were used as endogenous control. MDCK cell line was used as negative control. Lung DNA was extracted from 10-15 sections of paraffin blocks (4 μm) using with QIAamp DNA Mini Kit (Qiagen). The amplification and quantification of DNA was carried by quantitative PCR in technical triplicates by using a LightCycler 480 real-time lightcycler (Roche). Relative DNA levels were calculated by 2^−ΔΔCt method.
Tissue sections from tumours were deparaffinised and rehydrated using standard protocols. The slides were rinsed twice with PBS and treated with citrate buffer buffer (Dako REAL, Denmark) in microwave at 350 W for 5 min. The tissue sections were then analysed with an in situ Cell Death Detection Kit, Fluorescein (Roche) following the manufacturer's instructions. Then, slides were incubated with Hoechst for 5 min in darkness. The reaction was visualized under an epifluorescence Olympus microscope using 20× objective.

Setting [7] is: Hakai-MDCK xenograft tumours, immunohistochemistry.
Where [8] appears, read: Hakai-MDCK xenograft, nude mice, 5 mg/kg.

With `O=C(O)c1ccc(-n2nnnc2SCC(=O)c2ccc([N+](=O)[O-])cc2)cc1` [Hakin-1, 4-(5-[2-(4-nitrophenyl)-2-oxoethyl]thiol-1H-tetrazol-1-yl)benzoic acid], the “cell phenotype by phase contrast” value in series [1] is given as “induction of an epithelial phenotype”. The “cell proliferation (BrdU)” value in series [2] is recorded as “no effect was detected”. Moreover, in series [3], the “cell proliferation (BrdU)” value is on record as “inhibited cell proliferation”. In addition, the “cell proliferation (BrdU)” value in series [4] was “inhibited cell proliferation”. In series [5], the “colony formation in soft agar” value is “robust inhibition of colony formation”. Besides, the “micrometastasis in lung (quantitative PCR of HA-tagged Hakai DNA)” value in series [6] (Hakai-MDCK xenograft mice, vs DMSO treated mice) was “significant reduction of micrometastasis”. Further, in series [6] (Hakai-MDCK xenograft tumours), the “Cortactin expression (immunohistochemistry)” value is recorded as “recovered” and the “apoptosis (TUNEL assay)” value is given as “does not affect cell apoptosis; also recorded: no effect on apoptosis was detected”. In series [6] (Hakai-MDCK xenograft tumours, H&E), the mitotic-index entry is reported as “markedly reduce”. In series [6] (setting [7]), the “number of Ki67-positive cells” value is recorded as “markedly reduce” and the “number of blood vessels (CD31 angiogenic marker)” value was “strong reduction on the number of blood vessels”. In series [6] (Hakai-MDCK xenograft tumours, vs DMSO treated mice), the “N-cadherin mesenchymal marker expression (immunohistochemistry)” value was “strongly reduced”. For the same compound, in series [6] (setting [8]), the “tumour cell morphology (H&E)” value was “induction of tumour differentiation and an increase in cytoplasm size”; the “tumour-cell infiltration in blood vessels (H&E)” value was “no infiltration was detected”. Moreover, the xenograft tumour growth result in series [6] (Hakai-MDCK xenograft, nude mice, 5 mg/kg every 3 days, vs DMSO, 5 mg/kg) is “inhibits tumour growth; also recorded: potent effect on inhibiting xenograft tumour growth; also recorded: strong antitumor effect; also recorded: inhibited tumor growth”. In series [6] (nude mice treated with 5 mg/kg, 5 mg/kg), the “tissue damage / systemic toxicity (H&E of organs)” value was “Intact cell morphology and tissue structure of liver and kidney; also recorded: no damage was observed in lung and kidney tissues; also recorded: apparently without systemic toxicity”.
